Measurements reported in the NIST ThermoML archive (doi:10.1021/je5007696).

Test: refractive index (Na D-line) (dimensionless); xn = mol fraction of the nth substance listed
Settings: 100 kPa, Liquid, Standard Abbe refractometry

CCC(C)=O [butanone] + CCCCO
refractive index
Settings	x1 = 0.0997	x1 = 0.1999	x1 = 0.3003	x1 = 0.4008	x1 = 0.5003	x1 = 0.6001	x1 = 0.6992	x1 = 0.7991	x1 = 0.899	x1 = 1
288.15 K	1.39943	1.3975	1.39558	1.39362	1.39169	1.38971	1.38771	1.38569	1.38364	1.38153
293.15 K	1.39733	1.39533	1.39333	1.39131	1.38933	1.38729	1.38525	1.38316	1.38108	1.37892
298.15 K	1.39524	1.39315	1.39107	1.38899	1.38696	1.38486	1.38276	1.38062	1.37849	1.37631
303.15 K	1.3931	1.39095	1.38882	1.38669	1.38457	1.38241	1.38025	1.37807	1.37589	1.37366
308.15 K	1.39096	1.38872	1.38651	1.38433	1.38215	1.37995	1.37775	1.37551	1.3733	1.37102
313.15 K	1.38881	1.38649	1.38421	1.38196	1.37973	1.37748	1.37522	1.37293	1.37065	1.36834
318.15 K	1.38664	1.38427	1.38192	1.37958	1.37728	1.37496	1.37265	1.37031	1.36798	1.36565
323.15 K	1.38447	1.38203	1.37959	1.37718	1.3748	1.37244	1.37008	1.36769	1.36531	1.36294
